For 32 compounds, absorption maximum results are on record in the Deep4Chem optical property database.

Each structure is given as a SMILES string.

This series can be described thus: solvent given as SMILES.

Take `CCOC(=O)c1cc(C(=O)OCC)c2cc(O)ccc2n1`: the absorption maximum (in CCO) is on record as 364 nm.
For the compound `CC[N+](CC)=c1ccc2nc3c(cc(NCCC(=O)NC(C)C(=O)OC)c4ccccc43)oc-2c1` (centres undefined), the absorption maximum is, setting by setting: (in CCO) 600 nm; (in O) 580 nm.
For the setting “in ClCCl”, `Clc1nnc(Oc2ccc(N(c3ccc(Br)cc3)c3ccc(Br)cc3)cc2)nn1` showed an absorption maximum of 524 nm.
Regarding `C(=C\c1cnccn1)/c1ccc(N(c2ccccc2)c2ccc(/C=C/c3cnccn3)cc2)cc1`, the absorption maximum (in ClCCl) came out at 420 nm.
For the setting “in ClCCl”, `COc1ccccc1C1=[N+]2C(=C(c3ccccc3)c3c4c(c(-c5ccccc5OC)n3[B-]2(F)F)C2C=CC4CC2)C2=C1C1C=CC2CC1` (centres undefined) yielded an absorption maximum of 556 nm.
With `CN(C)/C=N\c1ccc2c3c(cccc13)C(=O)c1ccccc1-2`, the absorption maximum is 459 nm (in C1CCOC1); 437 nm (in CCCCCC); 471 nm (in CCO); 459 nm (in CCOC(C)=O); 479 nm (in CN(C)C=O); 470 nm (in CO). Besides, the absorption maximum runs as follows: (in Cc1ccccc1) 454 nm; (in ClC(Cl)(Cl)Cl) 448 nm; (in ClC(Cl)Cl) 464 nm; (in ClCCl) 467 nm; (in c1ccccc1) 456 nm.
As to `COc1ccc2c(-c3nc(-c4cccc(Br)c4)no3)cc(=O)oc2c1`, the absorption maximum by setting is: (in CCO) 259 nm; (in ClC(Cl)Cl) 360 nm.
In the case of `CCn1c2ccc(-c3ccc(-c4cccs4)s3)cc2c2cc(-c3ccc(-c4cccs4)s3)ccc21`, the absorption maximum (in ClCCl) was 380 nm.
With `CC(C)(C)OC(=O)CN1CCN(c2ccc3c(-c4ccc(I)cc4)c4ccc(=[N+]5CCN(CC(=O)OC(C)(C)C)CC5)cc-4oc3c2)CC1`, the absorption maximum (in ClCCl) came out at 564 nm.
`c1ccc(N(c2ccccc2)c2ccc(-c3cnc(-c4ccc(N(c5ccccc5)c5ccccc5)cc4)s3)cc2)cc1` yielded an absorption maximum (in CO) of 398 nm.
Take `CC1=NN(c2cccc3ccccc23)[B-](F)(F)[n+]2ccccc21`: the absorption maximum (in ClCCl) came out at 432 nm.
As to `COc1ccc(C2=C(c3ccc(C)cc3)C(c3ccccc3)=[N+]3C2=Nc2c(-c4ccc(OC)cc4)c(-c4ccc(C)cc4)c(-c4ccccc4)n2[B-]3(F)F)cc1`, the absorption maximum (in Cc1ccccc1) stood at 656 nm.
`CN(/N=C1\N=C(N)C2(CCCC2)c2ccccc21)c1ccccc1` displayed an absorption maximum (in ClCCl) of 378 nm.
Consider `Cc1ccc(C(=O)/C=C/c2ccc(N(C)C)cc2)cc1`, for which the absorption maximum is reported as 404 nm (in C1CCOC1); 411 nm (in CC#N); 427 nm (in CC(=O)O); 405 nm (in CC(C)=O); 422 nm (in CCO); 419 nm (in CN(C)C=O). Moreover, the absorption maximum is, setting by setting: (in CO) 419 nm; (in Cc1ccccc1) 404 nm; (in ClC(Cl)Cl) 412 nm; (in c1ccccc1) 404 nm.
The compound `CC(=O)Nc1ccc2c(c1)c(=O)c1cc(NC(C)=O)ccc1n2CCCCCC(=O)O` had an absorption maximum (in O) of 430 nm.
On to `N#Cc1c(N2CCCCC2)cc(-c2cccc3ccccc23)c2c1CCc1ccccc1-2`, for which the absorption maximum (in C1CCOC1) turned out to be 353 nm.
Consider `CO[B-]1(OC)n2c(C)cc(C)c2C(c2ccc(I)cc2)=C2C(C)=CC(C)=[N+]21`, for which, for the setting “in ClC(Cl)Cl”, the absorption maximum is listed as 505 nm.
The compound `O=[N+]([O-])c1cccs1` yielded an absorption maximum (in CO) of 308 nm and an absorption maximum (in O) of 318 nm.
As for `COc1ccc(/N=N/c2c(O)c3ccccc3n(C)c2=O)c(S(=O)(=O)O)c1`, the absorption maximum turned out to be 449 nm (in C1CCOC1); 451 nm (in CC(C)=O); 446 nm (in CCOC(C)=O); 448 nm (in CO); 447 nm (in CS(C)=O); 449 nm (in Cc1ccccc1). Besides, the absorption maximum is, setting by setting: (in ClCCl) 451 nm; (in O) 447 nm.
As for `COc1ccc(-c2oc3cccc4c5c(-c6ccc(OC)c(OC)c6)/c(=N/S(=O)(=O)C(F)(F)F)oc6cccc(c2c34)c65)cc1OC`, the absorption maximum (in ClC(Cl)Cl) was determined as 485 nm.
For the compound `O=C(c1ccc(C(=C(c2ccc(C(=O)c3ccc(-n4c5ccccc5c5ccccc54)cc3)cc2)c2ccc(C(=O)c3ccc(-n4c5ccccc5c5ccccc54)cc3)cc2)c2ccccc2)cc1)c1ccc(-n2c3ccccc3c3ccccc32)cc1`, the absorption maximum (in C1CCOC1) stood at 340 nm.
As to `CS(=O)(=O)c1ccc(-c2cc3ccc(N)cc3c(=O)o2)cc1`, the absorption maximum (in CC(C)=O) is listed as 358 nm; the absorption maximum (in CCCCCCCCO) was 366 nm; the absorption maximum (in CCCCO) is 366 nm; the absorption maximum (in CCCO) was 366 nm; the absorption maximum (in CCOC(C)=O) is 356 nm; the absorption maximum (in CN(C)C=O) is 367 nm. In addition, the absorption maximum was 358 nm (in CO) and 351 nm (in ClC(Cl)Cl).
In turn, `CCC12C(=C3C(=C4c5ccc(-c6ccccc6)cc5S(=O)(=O)C41CC)C(F)(F)C(F)(F)C3(F)F)c1ccc(-c3ccccc3)cc1S2(=O)=O` (centres undefined) gave an absorption maximum (in C1COCCO1) of 456 nm.
Regarding `COc1ccc(/C=C/c2ncc(-c3ccccc3)o2)cc1OC`, where the note is “in ClCCl”, the absorption maximum is 355 nm.
As to `CCCCN1C(=O)C(=C/C=C/C=C/C=C2N(CCCC)c3ccccc3N2CCCC)C(=O)N(CCCC)C1=S`, the absorption maximum is, setting by setting: (in CC#N) 540 nm; (in CCCCCC) 678 nm; (in CCO) 492 nm; (in CN(C)C=O) 549 nm; (in CO) 483 nm; (in Cc1ccccc1) 689 nm. In addition, the absorption maximum (in ClC(Cl)Cl) is given as 658 nm, the absorption maximum (in ClCCl) worked out at 642 nm and the absorption maximum (in OCC(F)(F)F) was determined as 464 nm.
As for `CC(C)Nc1cc2sc3cc(NC(C)C)c(F)cc3c(=O)c2cc1F`, where the note is “in CCO”, the absorption maximum was determined as 377 nm.
The compound `CCC(C)(C)c1ccc(-c2ccc3c(c2)C(CCOC)(CCOC)c2cc(C(C)(C)CC)ccc2-3)cc1` yielded an absorption maximum (in C1CCCCC1) of 318 nm.
Regarding `COc1ccc(/C=C/C2=CC(/C=C/c3ccc(OC)cc3)=[O+][B-](OC(C)=O)(OC(C)=O)O2)cc1`, the absorption maximum runs as follows: (in C1CCOC1) 456 nm; (in CC#N) 462 nm; (in CC(C)=O) 458 nm; (in CS(C)=O) 468 nm; (in Cc1ccccc1) 456 nm; (in ClC(Cl)Cl) 464 nm. For the setting “in ClCCl”, this compound returned an absorption maximum of 464 nm.
Where the note is “in ClC(Cl)Cl”, `Cc1cccc(C)c1-c1cc2c(C)c3c4cc5nc6cc7c(cc6nc5cc4c3c(C)c2cc1-c1c(C)cccc1C)c1c(C)c2cc(-c3c(C)cccc3C)c(-c3c(C)cccc3C)cc2c(C)c71` came in with an absorption maximum of 503 nm.
Turning to `c1ccc(-c2nn(-c3ccccc3)c3nc4ccccc4cc23)cc1`, the absorption maximum worked out at 401.45 nm (in C1CCCCC1); 398.57 nm (in C1CCOC1); 396.83 nm (in CC#N); 396.04 nm (in CC(C)=O); 398.72 nm (in CCCCCl); 398.57 nm (in CCCCOCCCC). Under “in CN(C)C=O”, this compound returned an absorption maximum of 397.93 nm.
Regarding `CCN(CC)c1ccc2c(c1)oc(=O)c1c(=O)oc3cc(C#Cc4ccc(N(C)C)cc4)ccc3c12`, the absorption maximum was found to be 468 nm (in CS(C)=O) and 459 nm (in ClCCl).
With `COc1ccccc1-c1nc(-c2ccccc2)c(-c2ccccc2)[nH]1`, the absorption maximum (in CO) is 307 nm.
